From publication PMC2858875 (Chemistry & biology, 2010)

Key:
PBMC/HUVEC co-culture [1] = format: cell-based, human
PBMC/HUVEC co-culture [2] = tested on: PBMC/HUVEC co-culture
[3] = tested on: MCP-1 stimulated Ser473 p-Akt production in THP-1 monocytes; assay: THP-1 signaling assay, MCP-1 stimulated Ser473 p-Akt; format: cell-based; details: 100nM MCP-1 for 5 minutes, FACS
PI3Kδ = target: T1, PI3Kδ (Homo sapiens, UniProt O00329); assay: Class I PI3K kinase assay; details: biochemical assay, 10μM ATP
T1 sequence (O00329 1-1044): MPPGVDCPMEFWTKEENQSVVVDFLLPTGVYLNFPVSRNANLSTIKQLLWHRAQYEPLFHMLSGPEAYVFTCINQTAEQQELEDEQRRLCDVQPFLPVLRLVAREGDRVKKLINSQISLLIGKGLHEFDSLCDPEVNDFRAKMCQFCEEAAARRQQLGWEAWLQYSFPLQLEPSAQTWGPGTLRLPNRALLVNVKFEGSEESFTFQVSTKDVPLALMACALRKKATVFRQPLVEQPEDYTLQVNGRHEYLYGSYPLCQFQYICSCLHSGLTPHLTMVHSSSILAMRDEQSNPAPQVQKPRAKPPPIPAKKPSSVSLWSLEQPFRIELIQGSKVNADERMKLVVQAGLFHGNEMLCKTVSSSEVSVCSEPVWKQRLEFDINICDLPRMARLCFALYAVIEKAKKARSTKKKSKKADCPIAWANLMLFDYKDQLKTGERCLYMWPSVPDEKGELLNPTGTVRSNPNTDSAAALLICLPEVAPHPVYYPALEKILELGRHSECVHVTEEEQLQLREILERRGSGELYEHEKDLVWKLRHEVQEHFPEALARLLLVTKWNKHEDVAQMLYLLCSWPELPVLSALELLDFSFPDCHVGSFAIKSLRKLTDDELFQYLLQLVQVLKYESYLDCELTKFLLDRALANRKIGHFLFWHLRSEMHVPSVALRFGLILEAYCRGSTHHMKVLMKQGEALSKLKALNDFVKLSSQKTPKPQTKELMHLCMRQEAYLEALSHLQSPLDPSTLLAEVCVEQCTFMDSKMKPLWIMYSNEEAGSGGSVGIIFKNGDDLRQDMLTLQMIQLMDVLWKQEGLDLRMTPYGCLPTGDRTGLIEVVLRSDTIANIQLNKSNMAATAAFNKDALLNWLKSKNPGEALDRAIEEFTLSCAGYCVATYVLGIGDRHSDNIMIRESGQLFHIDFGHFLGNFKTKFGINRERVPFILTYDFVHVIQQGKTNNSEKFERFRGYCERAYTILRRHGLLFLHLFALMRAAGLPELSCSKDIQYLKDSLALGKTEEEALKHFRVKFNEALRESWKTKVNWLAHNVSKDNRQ

[4] = tested on: M-CSF stimulated Ser473 p-Akt production in THP-1 monocytes; assay: THP-1 signaling assay, M-CSF stimulated Ser473 p-Akt; format: cell-based; details: 50ng/mL CSF-1 for 7 minutes, FACS
all PI3K isoforms = details: at 300nM; ref Camps et al., 2005; cited from earlier work

## COc1ccc2c(c1OC)N=C(NC(=O)c1cccnc1)N1CCN=C21 [PIK90]
HUVECs
  HUVEC viability: sulforhodamine B (SRB) protein binding: < -0.3 log ratio
HUVECs; 3C system
  HLA-DR level: strongly inhibited
  urokinase receptor (CD87/uPAR) level: strongly inhibited
HUVECs; HUVEC-only culture
  HUVEC proliferation: inhibited HUVEC proliferation
PBMC/HUVEC co-culture [1]
  CCL2/MCP-1 production: modest effects
  CD38 production: modest effects
  PBMC proliferation: decrease
PBMC/HUVEC co-culture [2]
  cell viability: little effect
PBMC/HUVEC co-culture [2]; LPS system
  CD40 level: significantly reduced

## O=C1NC(=O)/C(=C\c2ccc3nccnc3c2)S1 [AS605240]
[3]
  block of MCP-1 stimulated Ser473 p-Akt production: blocked
PI3Kδ
  potency against PI3Kδ (in words): do not significantly inhibit PI3Kδ at the doses tested
[4]
  block of M-CSF stimulated Ser473 p-Akt production: ineffective
All PI3K isoforms
  inhibition of all PI3K isoforms: inhibits all PI3K isoforms

## Cc1ccccc1-n1c(Cn2cnc3c(N)ncnc32)nc2cccc(C)c2c1=O [IC87114]
HUVECs; 3C system
  E-selectin expression in directly stimulated HUVECs: did not inhibit E-selectin expression
